The values below come from patent US8580526B2, “Methods of using GPR119 receptor to identify compounds which stimulate glucose-dependent insulinotropic peptide secretion” (Arena Pharmaceuticals, Inc., priority 2006, dated 2013).

Assay [1] deals with T1, GPR119 (Mus musculus, UniProt Q7TQP3).
T1 sequence (Q7TQP3 1-335): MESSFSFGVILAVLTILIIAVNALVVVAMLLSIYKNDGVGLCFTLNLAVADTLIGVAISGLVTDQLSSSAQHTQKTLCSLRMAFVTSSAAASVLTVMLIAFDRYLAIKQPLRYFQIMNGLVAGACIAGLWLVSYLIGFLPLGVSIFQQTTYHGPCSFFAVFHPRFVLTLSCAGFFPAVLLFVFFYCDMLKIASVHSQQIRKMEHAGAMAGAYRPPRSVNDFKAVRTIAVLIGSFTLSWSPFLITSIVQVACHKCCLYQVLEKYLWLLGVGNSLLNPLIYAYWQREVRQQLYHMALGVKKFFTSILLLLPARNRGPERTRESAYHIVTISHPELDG
Nature of the assay: Pharmacodynamic analysis of effect of oral GPR119 agonist on blood (plasma total) GIP level in wild-type mice, rodent GIP ELISA. Format: in vivo, C57blk/6 male mice. Also noted: Effect of Administration of GPR119 Agonist on Blood GIP Level in Wild-Type Mice; endogenous in cells; host or cells: whole animal: C57blk/6 male mice, oral dosing. Particulars: 20 mg/kg per orally, 30 min before glucose bolus 3 g/kg, FIG. 1A. Here is the method:
A. C57blk/6 male mice were fasted for 18 hours, and randomly assigned into fourteen groups with n=6 for each group. Mice were administered per orally with vehicle (PET; 80% PEG400, 10% ethanol, 10% Tween80) or with a GPR119 agonist in accordance with the present invention (Compound 1; (2-Fluoro-4-methanesulfonyl-phenyl)-{6-[4-(3-isopropyl-1,2,4]oxadiazol-5-yl)-piperidin-1-yl]-5-nitro-pyrimidin-4-yl}-amine) at 20 mg/kg, as indicated in FIG. 1A. Thirty minutes after treatment, a glucose bolus at 3 g/kg were delivered per orally, and plasma were collected at 0 (no glucose bolus), 2, 5, 10, 20, 40 and 60 minutes after glucose bolus. Plasma GIP levels were determined by using a rodent GIP ELISA kit purchased from Linco Research Laboratory [Rat/Mouse Gastric Inhibitory Polypeptide (Total) ELISA Catalog #EZRMGIP-55K], following instructions provided by the supplier. […]
B. C57blk/6 male mice were fasted for 18 hours, and randomly assigned into fourteen groups with n=6 for each group. […] Plasma GIP levels were determined by using a rodent GIP ELISA kit purchased from Linco Research Laboratory [Rat/Mouse Gastric Inhibitory Polypeptide (Total) ELISA Catalog #EZRMGIP-55K], following instructions provided by the supplier. […] Mean values of GIP concentration were calculated based on results with six mice in each group and shown as mean±SEM. […]
On the technique in general: An ELISA detects its analyte on a solid surface through an enzyme-linked reagent.

Assay [2] has as its target T1, GPR119. The experiment in a line: Effect of oral GPR119 agonist on blood GIP level in GPR119-deficient (knockout) mice compared to wild-type mice, rodent GIP ELISA. As to conditions: 20 mg/kg per orally, FIG. 2A. Format: in vivo, GPR119-deficient male mice and wild-type littermates. Set-up: endogenous in cells; host or cells: whole animal: GPR119-deficient male mice and wild-type littermates, oral dosing. The procedure: A. GPR119-deficient male mice and wild-type littermates were fasted for 18 hours. Mice were administered per orally with vehicle (PET; 80% PEG400, 10% ethanol, 10% Tween80) or with a GPR119 agonist in accordance with the present invention (Compound 1; (2-Fluoro-4-methanesulfonyl-phenyl)-{6-[4-(3-isopropyl-[1,2,4]oxadiazol-5-yl)-piperidin-1-yl]-5-nitro-pyrimidin-4-yl}-amine) at 20 mg/kg, as indicated (n=5). Thirty minutes after treatment, blood (100 microliter) was collected via retro orbital vein of the eye (time 0) followed by a glucose bolus at 3 g/kg (per orally). Five minutes after I delivering glucose, another blood sample (100 microliter) was collected (time 5 minutes). Plasma were collected after centrifugation and GIP levels were determined by using a rodent GIP ELISA kit purchased from Linco Research Laboratory [Rat/Mouse Gastric Inhibitory Polypeptide (Total) ELISA Catalog #EZRMGIP-55K], following instructions provided by the supplier. […]
B. GPR119-deficient male mice and wild-type littermates were fasted for 18 hours. […] Plasma were collected after centrifugation and GIP levels were determined by using a rodent GIP ELISA kit purchased from Linco Research Laboratory [Rat/Mouse Gastric Inhibitory Polypeptide (Total) ELISA Catalog #EZRMGIP-55K], following instructions provided by the supplier. […]

Turning to `CC(C)c1noc(C2CCN(c3ncnc(Nc4ccc(S(C)(=O)=O)cc4F)c3[N+](=O)[O-])CC2)n1` [Compound 1, (2-Fluoro-4-methanesulfonyl-phenyl)-{6-[4-(3-isopropyl-[1,2,4]oxadiazol-5-yl)-piperidin-1-yl]-5-nitro-pyrimidin-4-yl}-amine], the “glucose-dependent and glucose-independent level of GIP in the blood” value in assay [1] (plasma at 0 (no glucose bolus) to 60 min) was “increased both a glucose-dependent and a glucose-independent level of GIP”. Further, the “plasma total GIP” value in assay [1] (plasma at 0 (no glucose bolus), 2, 5, 10, 20, 40, 60 min, vs vehicle PET) is reported as “stimulated plasma total GIP”. Also, in assay [2] (GPR119-deficient vs wild-type mice, time 0 and 5 min after glucose bolus 3 g/kg), the “dependence on GPR119 of the increase of glucose-independent and glucose-dependent level of GIP in the blood” value is recorded as “functional GPR119 receptor was necessary”. In addition, the “plasma total GIP in wild-type mice” value in assay [2] (blood 30 min after treatment (time 0) and 5 min after glucose bolus 3 g/kg) is “stimulated plasma total GIP in the wild-type mice”.
